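Five concentrations, 48 hours, 96-well plates. GI50 marks 50% less growth.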 Calls of active or inactive are those of the source. No stated cut-off is given here; in the data, active = GI50 up to about 1.1 µM and inactive = higher.

Some test systems named below: KM12; CCRF-CEM; MOLT-4; SN12C; T47D; UACC-257; Hs-578T; SK-OV-3; U-251; MDA-MB-231; HOP-92; 786-0; SK-MEL-5; M14; NCI-H226; HCT-116; K562; OVCAR-4; UO-31; HCT-15.
Test in all cases: NCI-60 cell line screen, 48 h

Turning to `C=C(CCOC)CCC1CCCCC(=C)[C@H]1OC(C)=O` (stereo not given in full), the GI50 with KM12 was > 100 µM (inactive); in the assay on CCRF-CEM, > 100 µM (inactive); in the assay with MOLT-4, 59.7 µM (inactive); in the assay with SN12C, > 100 µM (inactive); in the assay with T47D it was > 100 µM (inactive); in the assay with UACC-257, > 100 µM (inactive). The GI50 in the assay with Hs-578T, in the assay on SK-OV-3, in the assay on U-251, in the assay with MDA-MB-231, in the assay with HOP-92 and in the assay on 786-0 was > 100 µM (inactive) each time. Also, the GI50 is 63.2 µM (inactive) in the assay with SK-MEL-5; > 100 µM (inactive) with M14; 97.3 µM (inactive) with NCI-H226; > 100 µM (inactive) in the assay on HCT-116; > 100 µM (inactive) in the assay on K562; > 100 µM (inactive) with OVCAR-4. The GI50 is > 100 µM (inactive) with UO-31 and above 100 µM in the assay on HCT-15.

`COc1ccc2c3c1OC1C34CCN(C)C(C2)C4=CC(I)C1(OC)OC` (stereo not given): the GI50 in the assay on KM12 is 14.4 µM (inactive); in the assay with CCRF-CEM, 1.32 µM (inactive); in the assay with MOLT-4, 3.15 µM (inactive); in the assay with SN12C it was 5.78 µM (inactive); in the assay with T47D it was 16.3 µM (inactive); with UACC-257, 13.2 µM (inactive). Further, the GI50 is 37 µM (inactive) in the assay on Hs-578T; 15 µM (inactive) in the assay with SK-OV-3; 16.2 µM (inactive) with U-251; 18.5 µM (inactive) in the assay on MDA-MB-231; 11.4 µM (inactive) in the assay with HOP-92; 4.15 µM (inactive) with 786-0. Besides, the GI50 is 12 µM (inactive) in the assay on SK-MEL-5; 14.3 µM (inactive) in the assay with M14; 18.6 µM (inactive) with NCI-H226; 3.93 µM (inactive) in the assay on HCT-116; 2.77 µM (inactive) in the assay on K562; 13.2 µM (inactive) with OVCAR-4. Also, the GI50 in the assay on UO-31 was 14.9 µM (inactive); in the assay on HCT-15 it was 11.8 µM.

Take `COC1=CC(=O)c2nc3ccccc3c3ccnc1c23`: the GI50 is 4.04 µM (inactive) in the assay on KM12; 4.4 µM (inactive) in the assay with CCRF-CEM; 4.01 µM (inactive) in the assay with MOLT-4; 6.82 µM (inactive) with SN12C; 5.71 µM (inactive) with T47D; 5.16 µM (inactive) with UACC-257. The GI50 with Hs-578T is 5.48 µM (inactive); with SK-OV-3, 26.9 µM (inactive); in the assay with U-251, 5.05 µM (inactive); in the assay on MDA-MB-231 it was 7.8 µM (inactive); with HOP-92, 15.8 µM (inactive); in the assay on 786-0, 3.64 µM (inactive). Also, the GI50 in the assay on SK-MEL-5 was 0.653 µM (active); with M14, 2.9 µM (inactive); in the assay with NCI-H226, 10.8 µM (inactive); in the assay on HCT-116 it was 1.2 µM (inactive); in the assay on K562 it was 3.37 µM (inactive); with OVCAR-4, 4.89 µM (inactive). Moreover, the results for the GI50 with UO-31 and in the assay on HCT-15 were 4.35 µM (inactive) and 0.721 µM, respectively.

As to `CCCCCCCCCCCCCCCCCCNc1nc(=O)n(C2CC(O)C(COP(=O)(O)OCC3OC(n4ccc(N)nc4=O)C(O)C3O)O2)cc1F` (stereo not given), the GI50 was > 100 µM (inactive) in the assay on KM12; > 100 µM (inactive) in the assay on CCRF-CEM; 25.9 µM (inactive) in the assay with MOLT-4; 27 µM (inactive) in the assay on SN12C; 28.7 µM (inactive) in the assay on T47D; > 100 µM (inactive) in the assay on UACC-257. The GI50 with Hs-578T is > 100 µM (inactive); in the assay with SK-OV-3 it was 53.6 µM (inactive); in the assay on U-251, 23.7 µM (inactive); with MDA-MB-231, 27.7 µM (inactive); in the assay with HOP-92, 31.1 µM (inactive); in the assay with 786-0 it was 8.34 µM (inactive). The GI50 with SK-MEL-5 is > 100 µM (inactive); in the assay on M14, 9.35 µM (inactive); with NCI-H226, > 100 µM (inactive); with HCT-116, 9.35 µM (inactive); in the assay on K562, > 100 µM (inactive); with OVCAR-4, 93.5 µM (inactive). In addition, the results for the GI50 with UO-31 and in the assay with HCT-15 were 24.5 µM (inactive) and 12.7 µM, respectively.

These data come from ChEMBL document CHEMBL1201862, “PubChem BioAssay data set” (2004).
